Values after ≈ are worked out from the molar mass of the structure shown.
Assays:
[1] = Determination of water solubility, Method 1 (suspension in tap water, weighing); format: physicochemical; conditions: thermodynamic from solid, room temperature, 18 h stirring, triplicates
Procedure: (§1) Determination of Water Solubility
10 mg of compound was suspended in 1 L of tap water and the solution was stirred at room temperature for 18 h. Upon completion, solution was sonicated for another hour, centrifuged and the supernatant was separated from the precipitate. Both aliquots were lyophilized, and weighed. This procedure was performed in triplicates.

[2] = Determination of water solubility, Method 2 (HPLC-MS standard curve, saturated solution in water); format: physicochemical; conditions: thermodynamic from solid; saturated solution in water, HPLC-MS standard curve
Procedure: as §1
A standard curve with 10 calibration points of the compound of interest is plotted using HPLC-MS and serial dilution. The dilutions and stock solutions were prepared in THF as a solvent. Following the measurements, a saturated solution in water of the compound in study was also measured. Upon plotting the standard curve using the peak areas of the MS peaks, the water samples were plotted along the curve and the solubility was then calculated.

[3] = system: E. coli TolC (+PMBN); assay: Antimicrobial assay, MIC by microbroth dilution with PMBN; format: cell-based; conditions: 16 h, 3 μg/mL polymyxin B nonapeptide (PMBN) added
Procedure: Bacterial strains used in susceptibility assays (minimum inhibitory concentrations, MIC) were either part of our internal strain collection or were purchased form the German Collection of Microorganisms and Cell Cultures (DSMZ). All compounds were prepared as DMSO stocks and MIC values were determined in standard microbroth dilution assays. Overnight cultures of bacteria were diluted in cation-adjusted Muller-Hinton broth (BBL™, BD) and were adjusted to approximately 10^5 cfu/mL. For the E. coli culture, 3 μg/mL of polymyxin B nonapeptide (PMBN) was added to increase permeability of the outer membrane as chlorotonils were previously shown to not penetrate into Gram-negative cells. Bacteria were grown in the presence of the derivatives in serial dilution for 16 h at their optimal growth temperature. MIC values were determined according to CLSI guidelines (antibiotic concentration at which no visible bacterial growth is observed).

[4] = system: L-929 (murine fibroblasts); assay: Cytotoxicity assay (MTT, 5 d); format: cell-based; conditions: Mus musculus, L929, 120 h
Procedure: Cytotoxicity Assay The murine fibroblast cell line L-929 was obtained from the German Collection of Microorganisms and Cell Cultures (DSMZ) and maintained under conditions recommended by the depositor. Cells were seeded at 6×10^3 cells per well of sterile 96-well plates in 180 μL complete medium and treated with the compounds in serial dilution after 2 h of equilibration. After 5 d, viability was assessed by the MTT method. After 1.5 h incubation with 0.5 mg/mL MTT reagent, cells were washed with PBS and 100 μL of 2-propanol/10 N HCl (250:1) was added. The absorbance at 570 nm was determined on a microplate reader and cell viability was expressed as percentage relative to the respective solvent control. Half-inhibitory concentrations (IC50) were determined by sigmoidal curve fitting.

[5] = system: P. falciparum 3D7 (sensitive strain); assay: Antiplasmodial in vitro drug sensitivity assay (HRP2-ELISA); format: cell-based; conditions: Plasmodium falciparum, 3D7, read-out: IC50 against P. falciparum 3D7
Procedure: (§2) Two laboratory strains of P. falciparum, the chloroquine sensitive 3D7 and the multi-resistant Dd2 were kept in continuous culture as previously described (Trager and Jensen 1976). In brief, parasites were kept in complete culture medium (RPMI 1640, 25 mM HEPES, 2 mM L-glutamine, 50 μg/ml gentamicin and 0.5% w/v AlbuMAX) at 37° C., 5% CO2 and 5% oxygen at 5% hematocrit with daily change of medium. Synchronization was performed with sorbitol twice a week (Lambros and Vanderberg 1979).
(§3) In Vitro Drug Sensitivity Assay
(§4) All compounds were dissolved in DMSO at stock dilutions between 25 and 100 mM; the reference drug chloroquine diphosphate (MW: 515.86) was diluted in distilled water and DMSO, respectively. […] Antiplasmodial activity of the different compounds was tested in a drug sensitivity assay against the two laboratory strains using the histidine-rich protein 2 (HRP2) assay as described previously (Noedl 2005). In brief: 96 well plates were pre-coated with the different compounds in a threefold dilution before ring stage parasites were added in complete culture medium at a hematocrit of 1.5% and a parasitemia of 0.05% in a total volume of 225 μl per well. After three days of incubation plates were frozen until analyzed by HRP2-ELISA. All compounds were evaluated in duplicate in at least two independent experiments.

[6] = system: P. falciparum Dd2 (resistant strain); assay: as above; format: cell-based; conditions: Plasmodium falciparum, DD2, read-out: IC50 against P. falciparum Dd2
Procedure: as §2, §3, §4

[7] = system: chloroquine-sensitive laboratory strains of Plasmodium falciparum; conditions: read-out: mean IC50, chloroquine-sensitive laboratory strains of Plasmodium falciparum; in vitro, first screening; cited from earlier work
[8] = system: chloroquine-resistant laboratory strains of Plasmodium falciparum; conditions: read-out: mean IC50, chloroquine-resistant laboratory strains of Plasmodium falciparum; in vitro, first screening; cited from earlier work
[9] = system: clinical isolates from Gabon; conditions: read-out: median IC50, clinical isolates from Gabon; in vitro; cited from earlier work
[10] = system: Plasmodium falciparum; conditions: cited from earlier work
[11] = system: mature stage (stage IV-V) gametocytes; conditions: read-out: mean IC50, gametocytocidal activity, ATP bioluminescence; cited from earlier work
[12] = mice; cited from earlier work

CC1=C[C@@H](C)C2C3C(=O)C(Cl)(Cl)C(=O)[C@H](C)C(=O)O[C@@H](C)/C=C/C=C\[C@@H](C)[C@@H]3C=C[C@@H]2C1 (stereo partly drawn) [Chlorotonil A (ChA), Chlorotonil A]
solubility at 18 h [1]: 3 µg/mL (≈ 6.26 µM) | solubility [2]: 1.8 µg/mL (≈ 3.75 µM) | MIC E. coli TolC (+PMBN) [3]: 0.4 µg/mL | IC50 [4]: 1100 nM | IC50 [5]: 18.7 nM | IC50 [6]: 20.7 nM | IC50 [7]: 9 nM | IC50 [8]: 18 nM | IC50 [9]: 15.2 nM | Development of resistant parasites in vitro by drug pressure [10]: not possible to develop resistant parasites in vitro by drug pressure | IC50 [11]: 29.6 nM | oral availability [12]: orally available
